# In EP4778924A1 (Huons Co., Ltd., priority 2023, dated 2025):
# Counter-ions that a name gives are not always drawn.
# Biological target: T1, Proton Pump (H^+,K^+-ATPase) (Sus scrofa, UniProt P19156)
# T1 construct: gastric vesicles were isolated from porcine stomachs; from tissue; host or cells: porcine stomach (gastric vesicles)
# Experiment: Inhibitory activity on proton pump (H+,K+-ATPase) activity, porcine gastric vesicles, malachite green readout
# Type: biochemical
# Settings: porcine gastric vesicles, pH 6.5, 8 mM KCl, 0.2 mM ATP
# Summary of the method: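 Porcine gastric vesicles (100 ng) preincubated 30 min at 37°C with […] valinomycin and compound (0.1% DMSO final) in 50 mM Tris-HEPES, 5 mM MgCl2, 8 mM KCl, pH 6.5, then 0.2 mM ATP for 20 min at 37°C. Released phosphate measured by malachite green at 620 nm; IC50 via nonlinear regression of % inhibition.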
# T1 sequence (P19156 2-1034 limits assumed): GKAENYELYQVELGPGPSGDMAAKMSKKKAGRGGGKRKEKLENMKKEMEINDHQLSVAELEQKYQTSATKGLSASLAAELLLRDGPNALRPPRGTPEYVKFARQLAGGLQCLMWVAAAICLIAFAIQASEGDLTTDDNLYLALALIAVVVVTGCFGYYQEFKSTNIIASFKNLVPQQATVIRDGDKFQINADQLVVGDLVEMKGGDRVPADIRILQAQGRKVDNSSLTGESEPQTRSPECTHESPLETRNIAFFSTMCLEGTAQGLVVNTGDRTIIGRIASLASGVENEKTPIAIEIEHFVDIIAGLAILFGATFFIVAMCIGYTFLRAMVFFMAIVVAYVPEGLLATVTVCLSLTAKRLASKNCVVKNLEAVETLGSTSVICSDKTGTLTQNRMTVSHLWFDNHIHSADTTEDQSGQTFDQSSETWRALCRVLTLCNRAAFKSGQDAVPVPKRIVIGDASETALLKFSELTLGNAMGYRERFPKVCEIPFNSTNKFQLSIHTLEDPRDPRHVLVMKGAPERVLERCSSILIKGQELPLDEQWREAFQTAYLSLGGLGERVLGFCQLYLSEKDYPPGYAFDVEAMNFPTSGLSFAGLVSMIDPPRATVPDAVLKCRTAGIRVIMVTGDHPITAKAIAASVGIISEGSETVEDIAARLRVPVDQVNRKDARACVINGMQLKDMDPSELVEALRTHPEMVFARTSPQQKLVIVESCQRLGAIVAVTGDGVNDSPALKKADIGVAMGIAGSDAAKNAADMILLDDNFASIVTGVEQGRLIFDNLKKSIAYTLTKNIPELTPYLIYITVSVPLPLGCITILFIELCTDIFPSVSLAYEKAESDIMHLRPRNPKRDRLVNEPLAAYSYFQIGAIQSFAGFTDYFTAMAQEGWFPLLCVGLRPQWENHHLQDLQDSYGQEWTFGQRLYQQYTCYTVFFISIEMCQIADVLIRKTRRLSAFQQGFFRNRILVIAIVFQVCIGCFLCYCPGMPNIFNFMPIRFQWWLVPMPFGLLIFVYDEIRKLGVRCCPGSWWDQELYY
# T1 sequence (P18434 whole entry partner): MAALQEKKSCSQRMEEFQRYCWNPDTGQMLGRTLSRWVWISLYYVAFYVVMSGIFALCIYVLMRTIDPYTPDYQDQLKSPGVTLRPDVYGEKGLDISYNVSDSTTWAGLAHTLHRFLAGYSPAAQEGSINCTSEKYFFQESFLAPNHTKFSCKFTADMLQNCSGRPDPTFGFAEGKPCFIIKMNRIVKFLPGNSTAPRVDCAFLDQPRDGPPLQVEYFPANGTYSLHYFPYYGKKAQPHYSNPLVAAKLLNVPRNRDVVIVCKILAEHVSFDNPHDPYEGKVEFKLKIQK
row,IC50,Molecule
1,50 to 100 nM,"Cc1cccc(C)c1CNc1cc(NC(=O)CCN)cn2c(C)c(C)nc12 [Example 99, 3-amino-N-(8-((2,6-dimethylbenzyl)amino)-2,3-dimethylimidazo[1,2-a]pyridin-6-yl)propanamide hydrochloride]"
2,100 to 500 nM,"Cc1cccc(C)c1CNc1cc(NC(=O)N2CCNCC2)cn2c(C)c(C)nc12 [Example 103, N-(8-((2,6-dimethylbenzyl)amino)-2,3-dimethylimidazo[1,2-a]pyridin-6-yl)piperazine-1-carboxamide hydrochloride]"
3,100 to 500 nM,"Cc1cccc(C)c1CNc1cc(NC(=O)[C@H]2CCNC2)cn2c(C)c(C)nc12 [Example 105, (S)-N-(8-((2,6-dimethylbenzyl)amino)-2,3-dimethylimidazo[1,2-a]pyridin-6-yl)pyrrolidine-3-carboxamide hydrochloride]"
4,100 to 500 nM,"Cc1cccc(C)c1CNc1cc(NC(=O)[C@@H]2CCCCN2)cn2c(C)c(C)nc12 [Example 106, (S)-N-(8-((2,6-dimethylbenzyl)amino)-2,3-dimethylimidazo[1,2-a]pyridin-6-yl)piperidine-2-carboxamide hydrochloride]"
5,100 to 500 nM,"Cc1cccc(C)c1CNc1cc(NC(=O)[C@H]2CCN(C(=O)CO)C2)cn2c(C)c(C)nc12 [Example 110, (S)-N-(8-((2,6-dimethylbenzyl)amino)-2,3-dimethylimidazo[1,2-a]pyridin-6-yl)-1-(2-hydroxyacetyl)pyrrolidine-3-carboxamide citrate]"
6,100 to 500 nM,"Cc1cccc(C)c1CNc1cc(NC(=O)[C@H]2CCCNC2)cn2c(C)c(C)nc12 [Example 118, (S)-N-(8-((2,6-dimethylbenzyl)amino)-2,3-dimethylimidazo[1,2-a]pyridin-6-yl)piperidine-3-carboxamide hydrochloride]"
7,50 to 100 nM,"Cc1cccc(C)c1CNc1cc(NC(=O)CCNC(=O)CO)cn2c(C)c(C)nc12 [Example 119, N-(8-((2,6-dimethylbenzyl)amino)-2,3-dimethylimidazo[1,2-a]pyridin-6-yl)-3-(2-hydroxyacetamido)propanamide]"
8,100 to 500 nM,"Cc1cccc(C)c1CNc1cc(NC(=O)[C@H]2CCCN(C(=O)CO)C2)cn2c(C)c(C)nc12 [Example 120, (S)-N-(8-((2,6-dimethylbenzyl)amino)-2,3-dimethylimidazo[1,2-a]pyridin-6-yl)-1-(2-hydroxyacetyl)piperidine-3-carboxamide]"

# Second part, the molecule before the results:
row,Molecule,IC50
1,"Cc1cccc(C)c1CNc1cc(NC(=O)c2ccccc2)cn2c(C)c(C)nc12 [Example 104, N-(8-((2,6-dimethylbenzyl)amino)-2,3-dimethylimidazo[1,2-a]pyridin-6-yl)benzamide citrate]",100 to 500 nM
2,"CC(=O)Oc1ccc(/C=C/C(=O)Nc2cc(NCc3c(C)cccc3C)c3nc(C)c(C)n3c2)cc1 [Example 107, (E)-4-(3-((8-((2,6-dimethylbenzyl)amino)-2,3-dimethylimidazo[1,2-a]pyridin-6-yl)amino)-3-oxoprop-1-en-1-yl)phenyl acetate]",> 500 nM
3,"COc1cc(/C=C/C(=O)Nc2cc(NCc3c(C)cccc3C)c3nc(C)c(C)n3c2)ccc1OC(C)=O [Example 108, (E)-4-(3-((8-((2,6-dimethylbenzyl)amino)-2,3-dimethylimidazo[1,2-a]pyridin-6-yl)amino)-3-oxoprop-1-en-1-yl)-2-methoxyphenyl acetate]",> 500 nM
4,"Cc1cccc(C)c1CNc1cc(NC(=O)[C@@H]2CN2)cn2c(C)c(C)nc12 [Example 109, (S)-N-(8-((2,6-dimethylbenzyl)amino)-2,3-dimethylimidazo[1,2-a]pyridin-6-yl)aziridine-2-carboxamide hydrochloride]",100 to 500 nM
5,"CC(=O)O[C@H](C)C(=O)Nc1cc(NCc2c(C)cc(F)cc2C)c2nc(C)c(C)n2c1 [Example 111, (R)-1-((8-((4-fluoro-2,6-dimethylbenzyl)amino)-2,3-dimethylimidazo[1,2-a]pyridin-6-yl)amino)-1-oxopropan-2-yl acetate]",100 to 500 nM
6,"CC(=O)O[C@@H](C)C(=O)Nc1cc(NCc2c(C)cc(F)cc2C)c2nc(C)c(C)n2c1 [Example 112, (S)-1-((8-((4-fluoro-2,6-dimethylbenzyl)amino)-2,3-dimethylimidazo[1,2-a]pyridin-6-yl)amino)-1-oxopropan-2-yl acetate]",> 500 nM
7,"CC(=O)OC1(C(=O)Nc2cc(NCc3c(C)cc(F)cc3C)c3nc(C)c(C)n3c2)CC1 [Example 113, 1-((8-((4-fluoro-2,6-dimethylbenzyl)amino)-2,3-dimethylimidazo[1,2-a]pyridin-6-yl)carbamoyl)cyclopropyl acetate]",100 to 500 nM
8,"Cc1cc(F)cc(C)c1CNc1cc(NC(=O)[C@H](C)O)cn2c(C)c(C)nc12 [Example 114, (S)-N-(8-((4-fluoro-2,6-dimethylbenzyl)amino)-2,3-dimethylimidazo[1,2-a]pyridin-6-yl)-2-hydroxypropanamide]",100 to 500 nM
9,"Cc1cc(F)cc(C)c1CNc1cc(NC(=O)C2(O)CC2)cn2c(C)c(C)nc12 [Example 115, N-(8-((4-fluoro-2,6-dimethylbenzyl)amino)-2,3-dimethylimidazo[1,2-a]pyridin-6-yl)-1-hydroxycyclopropane-1-carboxamide]",< 50 nM
10,"Cc1cc(F)cc(C)c1CNc1cc(N2C(=O)CN(C)C2=O)cn2c(C)c(C)nc12 [Example 116, 3-(8-((4-fluoro-2,6-dimethylbenzyl)amino)-2,3-dimethylimidazolidine[1,2-a]pyridin-6-yl)-1-methylimidazolidine-2,4-dione]",50 to 100 nM
11,"Cc1cc(F)cc(C)c1CNc1cc(NC(=O)[C@@H](C)O)cn2c(C)c(C)nc12 [Example 117, (R)-N-(8-((4-fluoro-2,6-dimethylbenzyl)amino)-2,3-dimethylimidazo[1,2-a]pyridin-6-yl)-2-hydroxypropanamide]",< 50 nM
12,"Cc1cccc(C)c1CNc1cc(N)cn2c(C)c(C)nc12 [Preliminary Example 1, N^8-(2,6-dimethylbenzyl)-2,3-dimethylimidazo[1,2-a]pyridine-6,8-diamine]",50 to 100 nM
13,"Cc1cc(F)cc(C)c1CNc1cc(N)cn2c(C)c(C)nc12 [Preliminary Example 2, N^8-(4-fluoro-2,6-dimethylbenzyl)-2,3-dimethylimidazo[1,2-a]pyridine-6,8-diamine hydrochloride]",50 to 100 nM
14,"Cc1nc2c(O[C@H]3CCOc4cc(F)cc(F)c43)cc(C(=O)N(C)C)cc2[nH]1 [Tegoprazan, reference compound]",> 500 nM
15,"tert-butyl (2-(3-(8-((2,6-dimethylbenzyl)amino)-2,3-dimethylimidazo[1,2-a]pyridin-6-yl)ureido)ethyl)carbamate hydrochloride [Example 42]",100 to 500 nM

# Same assay, conditions: result in words
row,Molecule,inhibitory activity against proton pump activity
1,"Cc1cc(F)cc(C)c1CNc1cc(NC(=O)C2(O)CC2)cn2c(C)c(C)nc12 [Example 115, N-(8-((4-fluoro-2,6-dimethylbenzyl)amino)-2,3-dimethylimidazo[1,2-a]pyridin-6-yl)-1-hydroxycyclopropane-1-carboxamide]",excellent inhibitory properties
2,"Cc1cc(F)cc(C)c1CNc1cc(NC(=O)[C@@H](C)O)cn2c(C)c(C)nc12 [Example 117, (R)-N-(8-((4-fluoro-2,6-dimethylbenzyl)amino)-2,3-dimethylimidazo[1,2-a]pyridin-6-yl)-2-hydroxypropanamide]",excellent inhibitory properties
